For this assay, the system named is CD2F1 mice, L1210 leukemia ip, survival T/C. The experiment in a line: NCI In Vivo Anticancer Drug Screen. Data for tumor model L1210 Leukemia (intraperitoneal) in CD2F1 (CDF1) mice. As to conditions: higher = longer survival. Summed up: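 Implant tumor; dose compound or vehicle; measure endpoint in both groups; report treated divided by control.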
Where [1] appears, read: endpoint: mean survival time, dose: 100.0 mg/kg/injection, schedule: Q01DX001 (ip), vehicle: saline with Tween-80.
[2] abbreviates: endpoint: mean survival time, dose: 200.0 mg/kg/injection, schedule: Q01DX001 (ip), vehicle: saline with Tween-80.
[3] abbreviates: endpoint: mean survival time, dose: 50.0 mg/kg/injection, schedule: Q01DX009 (ip), vehicle: saline.
Where [4] appears, read: endpoint: mean survival time, dose: 100.0 mg/kg/injection, schedule: Q01DX009 (ip), vehicle: saline.
[5] abbreviates: endpoint: mean survival time, dose: 200.0 mg/kg/injection, schedule: Q01DX009 (ip), vehicle: saline.
Where [6] appears, read: endpoint: mean survival time, dose: 100.0 mg/kg/injection, schedule: Q04DX003 (ip), vehicle: saline with Tween-80.
Setting [7] is: endpoint: mean survival time, dose: 200.0 mg/kg/injection, schedule: Q04DX003 (ip), vehicle: saline with Tween-80.
Where [8] appears, read: endpoint: mean survival time, dose: 400.0 mg/kg/injection, schedule: Q04DX003 (ip), vehicle: saline with Tween-80.
Setting [9] is: endpoint: mean survival time, dose: 100.0 mg/kg/injection, schedule: Q01DX001 (ip), vehicle: saline.
Setting [10] is: endpoint: mean survival time, dose: 200.0 mg/kg/injection, schedule: Q01DX001 (ip), vehicle: saline.
Setting [11] is: endpoint: mean survival time, dose: 400.0 mg/kg/injection, schedule: Q01DX001 (ip), vehicle: saline.
[12] abbreviates: endpoint: mean survival time, dose: 50.0 mg/kg/injection, schedule: Q01DX009 (ip), vehicle: saline with Tween-80.
Setting [13] is: endpoint: mean survival time, dose: 100.0 mg/kg/injection, schedule: Q01DX009 (ip), vehicle: saline with Tween-80.
The mark [14] stands for this setting: endpoint: mean survival time, dose: 200.0 mg/kg/injection, schedule: Q01DX009 (ip), vehicle: saline with Tween-80.
Setting [15] is: endpoint: mean survival time, dose: 25.0 mg/kg/injection, schedule: Q01DX009 (ip), vehicle: water.
[16] abbreviates: endpoint: mean survival time, dose: 50.0 mg/kg/injection, schedule: Q01DX009 (ip), vehicle: water.
The mark [17] stands for this setting: endpoint: mean survival time, dose: 400.0 mg/kg/injection, schedule: Q01DX009 (ip), vehicle: saline with Tween-80.
[18] abbreviates: endpoint: mean survival time, dose: 100.0 mg/kg/injection, schedule: Q04DX002 (ip), vehicle: saline with Tween-80.
Where [19] appears, read: endpoint: mean survival time, dose: 200.0 mg/kg/injection, schedule: Q04DX002 (ip), vehicle: saline with Tween-80.

SMILES strings stand for the structures. “And” between values parts separate entries of the source, which are not always exact repeats. Identical values can stand only once. Inconclusive results and toxic doses are left out.

With `S=C(Cc1ccccc1)N1CCOCC1`, the T/C by setting is: under setting [1], 98 % of control; under setting [2], 102 % of control; (endpoint: mean survival time, dose: 300.0 mg/kg/injection, schedule: Q01DX001 (ip), vehicle: saline with Tween-80) 101 % of control.

Take `CCCN(CCC)CC(C)O` (centres undefined): the T/C by setting is: under setting [3], 95 % of control; under setting [4], 101 % of control; under setting [5], 97 % of control.

As to `COC1OC(CNC(=O)N(C)N=O)C(O)C(O)C1O` (centres undefined), the T/C reads like this: (endpoint: mean survival time, dose: 33.0 mg/kg/injection, schedule: Q01DX009 (ip), vehicle: saline) 120 % of control; (endpoint: mean survival time, dose: 113.0 mg/kg/injection, schedule: Q01DX009 (ip), vehicle: saline) 153 % of control.

As for `Cc1nc(-c2ccccc2)nc2c1CCO2`, the T/C is, setting by setting: under setting [6], 102 % of control; under setting [7], 100 % of control; under setting [8], 105 % of control.

As to `NC(=O)C(Br)Cc1cccc(Cl)c1` (centres undefined), the T/C was 102 % of control (endpoint: mean survival time, dose: 50.0 mg/kg/injection, schedule: Q01DX001 (ip), vehicle: saline); 100 % of control under setting [9]; 100 % of control under setting [10]; 100 % of control under setting [11].

As to `CCCCCCC(=O)O.[Pb]`, the T/C is 107 % of control (endpoint: mean survival time, dose: 75.0 mg/kg/injection, schedule: Q01DX001 (ip), vehicle: other); 97 % of control (endpoint: mean survival time, dose: 150.0 mg/kg/injection, schedule: Q01DX001 (ip), vehicle: other); 103 % of control (endpoint: mean survival time, dose: 300.0 mg/kg/injection, schedule: Q01DX001 (ip), vehicle: other).

Regarding `OC1(c2ccccc2)c2ccccc2C(O)(c2ccccc2)c2c1ccc1ccccc21` (centres undefined), the T/C under setting [12] was 91 % of control, the T/C under setting [13] is 94 % of control and the T/C under setting [14] was 91 % of control.

In the case of `CC#CC(=O)SCCNC(=O)CCNC(=O)CC(C)(C)C`, the T/C runs as follows: (endpoint: mean survival time, dose: 12.5 mg/kg/injection, schedule: Q01DX009 (ip), vehicle: saline with Tween-80) 101 % of control; (endpoint: mean survival time, dose: 25.0 mg/kg/injection, schedule: Q01DX009 (ip), vehicle: saline with Tween-80) 95 % of control; (endpoint: mean survival time, dose: 25.0 mg/kg/injection, schedule: Q04DX003 (ip), vehicle: saline with Tween-80) 106 % of control; under setting [12], 98 % of control; (endpoint: mean survival time, dose: 50.0 mg/kg/injection, schedule: Q04DX003 (ip), vehicle: saline with Tween-80) 94 % of control; under setting [13], 88 % of control. Besides, the T/C under setting [6] was 98 % of control.

Consider `[O-][n+]1ccccc1C[P+](c1ccccc1)(c1ccccc1)c1ccccc1`, for which the T/C is, setting by setting: (endpoint: mean survival time, dose: 12.5 mg/kg/injection, schedule: Q01DX009 (ip), vehicle: water) 101 % of control; under setting [15], 100 % of control; under setting [16], 105 % of control; (endpoint: mean survival time, dose: 100.0 mg/kg/injection, schedule: Q01DX009 (ip), vehicle: water) 96 % of control.

For `N#CCCN(C(=S)Nc1cccc(C(F)(F)F)c1)C1CCCCC1`, the T/C is, setting by setting: (endpoint: mean survival time, dose: 12.5 mg/kg/injection, schedule: Q01DX009 (ip), vehicle: Klucel (hydroxypropylcellulose) (HPC)) 92 % of control; (endpoint: mean survival time, dose: 25.0 mg/kg/injection, schedule: Q01DX009 (ip), vehicle: Klucel (hydroxypropylcellulose) (HPC)) 97 % of control; (endpoint: mean survival time, dose: 50.0 mg/kg/injection, schedule: Q01DX009 (ip), vehicle: Klucel (hydroxypropylcellulose) (HPC)) 98 % of control; (endpoint: mean survival time, dose: 100.0 mg/kg/injection, schedule: Q01DX009 (ip), vehicle: Klucel (hydroxypropylcellulose) (HPC)) 98 % of control; (endpoint: mean survival time, dose: 200.0 mg/kg/injection, schedule: Q01DX009 (ip), vehicle: Klucel (hydroxypropylcellulose) (HPC)) 98 % of control; (endpoint: mean survival time, dose: 400.0 mg/kg/injection, schedule: Q01DX009 (ip), vehicle: Klucel (hydroxypropylcellulose) (HPC)) 101 % of control. Further, the T/C by setting is: (endpoint: median survival time, dose: 100.0 mg/kg/injection, schedule: Q01DX009 (ip), vehicle: Klucel (hydroxypropylcellulose) (HPC)) 101 % of control; (endpoint: median survival time, dose: 200.0 mg/kg/injection, schedule: Q01DX009 (ip), vehicle: Klucel (hydroxypropylcellulose) (HPC)) 103 % of control; (endpoint: median survival time, dose: 400.0 mg/kg/injection, schedule: Q01DX009 (ip), vehicle: Klucel (hydroxypropylcellulose) (HPC)) 104 % of control.

On to `N#CC[CH2][Sn]([Br])([Br])[CH2]CC#N`, for which the T/C was 97 % of control (endpoint: mean survival time, dose: 0.78 mg/kg/injection, schedule: Q01DX009 (ip), vehicle: saline); 94 % of control (endpoint: mean survival time, dose: 1.56 mg/kg/injection, schedule: Q01DX009 (ip), vehicle: saline); 92 % of control and 98 % of control (endpoint: mean survival time, dose: 3.12 mg/kg/injection, schedule: Q01DX009 (ip), vehicle: saline); 105 % of control and 107 % of control (endpoint: mean survival time, dose: 6.25 mg/kg/injection, schedule: Q01DX009 (ip), vehicle: saline); 94 % of control and 101 % of control and 107 % of control (endpoint: mean survival time, dose: 12.5 mg/kg/injection, schedule: Q01DX009 (ip), vehicle: saline); 95 % of control and 97 % of control (endpoint: mean survival time, dose: 25.0 mg/kg/injection, schedule: Q01DX009 (ip), vehicle: saline). Besides, the T/C under setting [3] is 89 % of control.

With `COc1cc2ccncc2cc1O`, the T/C runs as follows: under setting [15], 96 % of control; under setting [16], 96 % of control.

Turning to `CCCCC(CC)C(=O)N1CCOCC1` (centres undefined), the T/C runs as follows: under setting [13], 96 % of control; under setting [14], 92 % of control; under setting [17], 86 % of control.

As to `C(=C\CN1CCOCC1)/CN1CCOCC1`, the T/C under setting [4] was 91 % of control; the T/C under setting [5] was 97 % of control; the T/C (endpoint: mean survival time, dose: 400.0 mg/kg/injection, schedule: Q01DX009 (ip), vehicle: saline) is 97 % of control.

Take `O=C1c2c(O)ccc(O)c2C(=O)c2c(NCCO)ccc(NCCO)c21`: the T/C is 103 % of control under setting [13], 110 % of control under setting [14] and 113 % of control under setting [17].

Turning to `CC(CCCC#N)[N+](=O)[O-]` (centres undefined), the T/C reads like this: (endpoint: mean survival time, dose: 5.0 mg/kg/injection, schedule: Q01DX001 (ip), vehicle: saline) 102 % of control; (endpoint: mean survival time, dose: 10.0 mg/kg/injection, schedule: Q01DX001 (ip), vehicle: saline) 96 % of control; (endpoint: mean survival time, dose: 20.0 mg/kg/injection, schedule: Q01DX001 (ip), vehicle: saline) 102 % of control; (endpoint: mean survival time, dose: 40.0 mg/kg/injection, schedule: Q01DX001 (ip), vehicle: saline) 102 % of control; under setting [9], 98 % of control.

Regarding `O=[N+]([O-])c1cccc(-c2nn[nH]n2)c1`, the T/C is, setting by setting: under setting [1], 93 % of control; under setting [13], 98 % of control; under setting [6], 97 % of control; under setting [2], 104 % of control; under setting [14], 117 % of control; under setting [7], 97 % of control. Also, the T/C is 88 % of control (endpoint: mean survival time, dose: 400.0 mg/kg/injection, schedule: Q01DX001 (ip), vehicle: saline with Tween-80); 101 % of control under setting [17]; 103 % of control under setting [8].

As to `CCOc1ccccc1OC(=O)Nc1ccccc1OC`, the T/C is, setting by setting: under setting [18], 106 % of control; under setting [19], 88 % of control; (endpoint: mean survival time, dose: 400.0 mg/kg/injection, schedule: Q04DX002 (ip), vehicle: saline with Tween-80) 100 % of control.

For the compound `O=C1c2ccccc2C(=O)N1CC(O)COc1ccccc1` (centres undefined), the T/C under setting [6] is 94 % of control, the T/C under setting [7] was 101 % of control and the T/C under setting [8] is 103 % of control.

Consider `O=[N+]([O-])c1ccc(/C=C/C=C/c2ccc(Cl)cc2Cl)cc1`, for which the T/C is 97 % of control under setting [6], 104 % of control under setting [7] and 98 % of control under setting [8].

`O=C(Nc1cc(Cl)c(I)c(Cl)c1)C(F)(F)F`: the T/C under setting [9] was 98 % of control, the T/C under setting [10] is 101 % of control and the T/C under setting [11] was 98 % of control.

Regarding `CC(CNC1CCCCC1)OC(=O)c1ccc(N(C)C)cc1` (centres undefined), the T/C (endpoint: mean survival time, dose: 75.0 mg/kg/injection, schedule: Q01DX001 (ip), vehicle: saline) is 99 % of control and the T/C (endpoint: mean survival time, dose: 150.0 mg/kg/injection, schedule: Q01DX001 (ip), vehicle: saline) was 100 % of control.

As to `CCOC(=O)C(C#N)c1ccccc1` (centres undefined), the T/C by setting is: under setting [18], 94 % of control; under setting [19], 94 % of control.

The record behind these values is PubChem BioAssay AID256 (DTP/NCI, 2004).
